Assay results from the supplement of paper PMC11061612.

Columns and labels:
[1] = system: KURAMOCHI (Ovarian Carcinoma); assay: Bliss excess, mean over the matrix (fraction); higher = more synergy
Procedure, shortened: (§1)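 Bliss excess equals the observed combination effect minus the expected value EA + EB − EA·EB, where EA and EB are the effects of each agent alone. Combination Emax is the second-highest inhibition within the matrix. Inhibition was scaled from CellTiter-Glo 2.0 luminescence, with 0 set by vehicle wells and 1 by blank wells, after 72 hours of two-drug dosing of cells plated in 1536-well plates.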

T98G (Glioblastoma) [2] = assay: as above
Procedure, shortened: as §1

[3] = system: HT-1376 (Bladder Carcinoma); assay: as above
Procedure, shortened: as §1

HOS (Osteosarcoma) [4] = assay: as above
Procedure, shortened: as §1

[5] = system: RO82-W-1 (Thyroid Gland Carcinoma); assay: combination Emax (second highest fraction inhibited in the dose matrix, 72 h); higher = more inhibition; extreme values may be limits of the assay
Procedure, shortened: as §1

NB10 (Neuroblastoma) = assay: as above
Procedure, shortened: as §1

[6] = system: CCRF-CEM (T-Lymphoblastic Leukemia); assay: as above
Procedure, shortened: as §1

[7] = system: NCI-H2085 (Non-Small Cell Lung Carcinoma); assay: as above
Procedure, shortened: as §1

[8] = system: HO-1-N-1 (Oral Cavity Carcinoma); assay: as above
Procedure, shortened: as §1

[9] = system: LB831-BLC (Bladder Carcinoma); assay: as above
Procedure, shortened: as §1

T98G (Glioblastoma) [10] = assay: as above
Procedure, shortened: as §1

[11] = system: Hs-578-T (Breast Carcinoma); assay: as above
Procedure, shortened: as §1

[12] = system: HT-1376 (Bladder Carcinoma); assay: as above
Procedure, shortened: as §1

[13] = system: UM-UC-3 (Bladder Carcinoma); assay: as above
Procedure, shortened: as §1

[14] = system: LS-180 (Colorectal Carcinoma); assay: as above
Procedure, shortened: as §1

[15] = system: TE-15 (Esophageal Squamous Cell Carcinoma); assay: as above
Procedure, shortened: as §1

HOS (Osteosarcoma) [16] = assay: as above
Procedure, shortened: as §1

[17] = system: NCI-H82 (Small Cell Lung Carcinoma); assay: as above
Procedure, shortened: as §1

[18] = system: TE-9 (Esophageal Squamous Cell Carcinoma); assay: as above
Procedure, shortened: as §1

[19] = system: DoTc2-4510 (Cervical Carcinoma); assay: as above
Procedure, shortened: as §1

Compound | Bliss excess [1] | Bliss excess (T98G (Glioblastoma) [2]) | Bliss excess [3] | Bliss excess (HOS (Osteosarcoma) [4]) | combination Emax [5] | combination Emax (NB10 (Neuroblastoma)) | combination Emax [6] | combination Emax [7] | combination Emax [8] | combination Emax [9] | combination Emax (T98G (Glioblastoma) [10]) | combination Emax [11] | combination Emax [12] | combination Emax [13] | combination Emax [14] | combination Emax [15] | combination Emax (HOS (Osteosarcoma) [16]) | combination Emax [17] | combination Emax [18] | combination Emax [19]
CN(CCO)CC[C@H](CSc1ccccc1)Nc1ccc(S(=O)(=O)NC(=O)c2ccc(N3CCC([C@@H](O)c4ccccc4-c4ccc(Cl)cc4)CC3)cc2)cc1S(=O)(=O)C(F)(F)F [AZD4320] + Nc1ccn([C@@H]2O[C@H](CO)[C@@H](O)C2(F)F)c(=O)n1 [Gemcitabine] (first compound max 1 µM, 7x7, partner max 0.3 µM) | 0.0216 | -0.0265 | -0.0644 | 0.0045 | 0.572 | 0.858 | 1 | 0.562 | 1 | 0.881 | 0.861 | 0.876 | 0.236 | 0.979 | 0.66 | 0.994 | 0.829 | 0.807 | 0.518 | 0.882
CC1(C)CCC(CN2CCN(c3ccc(C(=O)NS(=O)(=O)c4ccc(NCC5CCOCC5)c([N+](=O)[O-])c4)c(Oc4cnc5[nH]ccc5c4)c3)CC2)=C(c2ccc(Cl)cc2)C1 [Venetoclax] + CS(=O)(=O)CCNCc1ccc(-c2ccc3ncnc(Nc4ccc(OCc5cccc(F)c5)c(Cl)c4)c3c2)o1 [Lapatinib] (first compound max 1 µM, 7x7, partner max 10 µM) | -0.0415 | -0.0049 | -0.0404 | -0.087 | 0.144 | 0.0761 | 0.501 | 0.244 | 0.668 | 0.202 | 0.179 | 0.554 | 0.194 | 0.104 | 0.298 | 0.742 | 0.13 | 0.279 | 0.189 | 0.522
CN(CCO)CC[C@H](CSc1ccccc1)Nc1ccc(S(=O)(=O)NC(=O)c2ccc(N3CCC([C@@H](O)c4ccccc4-c4ccc(Cl)cc4)CC3)cc2)cc1S(=O)(=O)C(F)(F)F [AZD4320] + CC(=O)O[C@H]1C(=O)[C@@]2(C)[C@H]([C@H](OC(=O)c3ccccc3)[C@]3(O)C[C@H](OC(=O)[C@H](O)[C@@H](NC(=O)c4ccccc4)c4ccccc4)C(C)=C1C3(C)C)[C@]1(OC(C)=O)CO[C@@H]1C[C@@H]2O [Paclitaxel] (first compound max 1 µM, 7x7, partner max 3 µM) | 0.0929 | 0.0613 | 0.0857 | 0.184 | 0.947 | 0.912 | 1 | 0.97 | 1 | 0.965 | 0.993 | 1 | 0.775 | 0.966 | 0.94 | 0.992 | 1 | 0.941 | 0.931 | 0.992
N#Cc1cnc(Nc2cc(NC[C@H]3CNCCO3)c(C(F)(F)F)cn2)cn1 [SRA737] + Nc1ccn([C@@H]2O[C@H](CO)[C@@H](O)C2(F)F)c(=O)n1 [Gemcitabine] (first compound max 10 µM, 7x7, partner max 0.3 µM) | -0.0079 | 0.0323 | -0.0059 | 0.114 | 0.212 | 0.946 | 1 | 0.595 | 1 | 0.911 | 0.825 | 0.837 | 0.442 | 0.966 | 0.804 | 0.923 | 0.752 | 0.978 | 0.52 | 0.803
C[C@@H](Nc1cc(F)cc(F)c1)c1cc(C(=O)N(C)C)cc2c(=O)cc(N3CCOCC3)oc12 [AZD8186] + CC(=O)c1c(C)c2cnc(Nc3ccc(N4CCNCC4)cn3)nc2n(C2CCCC2)c1=O [Palbociclib] (first compound max 10 µM, 7x7, partner max 10 µM) | -0.0358 | 0.0744 | -0.037 | -0.0227 | 0.27 | 0.403 | 0.622 | 0.61 | 0.505 | 0.398 | 0.657 | 0.656 | 0.0814 | 0.621 | 0.624 | 0.597 | 0.336 | 0.526 | 0.109 | 0.297
C=CCn1c(=O)c2cnc(Nc3ccc(N4CCN(C)CC4)cc3)nc2n1-c1cccc(C(C)(C)O)n1 [AZD1775] + Nc1ccn([C@@H]2O[C@H](CO)[C@@H](O)C2(F)F)c(=O)n1 [Gemcitabine] (first compound max 1 µM, partner max 0.3 µM) | 0.0284 | 0.0257 | -0.0432 | 0.0754 | 0.194 | 0.933 | 1 | 0.725 | 0.993 | 0.872 | 0.781 | 0.724 | 0.428 | 0.918 | 0.754 | 0.944 | 0.596 | 0.923 | 0.502 | 0.729
